{
  "source": "patent US20220323269A1",
  "about": "“PERSONAL HYGIENE PRODUCT” (Croda International Plc, priority 2019, published 2022)",
  "assay_type_in_all_cases": "in vivo",
  "key": {"[1]": {"tested_on": "skin, volar forearm test sites", "experiment": "Irritation panel study, TEWL by POST (post occlusion stress test) protocol, SLS irritant model (Example 1)", "conditions": "FIG. 1; 10 gsm polypropylene nonwoven with 1% SLS + 2% diester vs 1% SLS alone (Sample A); 24 hours under occlusion patch; 9 panellists", "from_the_text": "10 gsm polypropylene nonwoven textile was cut into 11 mm diameter circles. Each circle was individually treated with water based dispersions then dried to achieve either a treat rate of a) 1% sodium lauryl sulphate (SLS, Sample A) based on weight of textile, or b) 1% SLS and 2% di-PPG-2 myreth-10 adipate (a diester skin care additive in accordance with the present invention, Sample B) based on percentage by weight of textile. SLS is a known skin irritant, and so provides a good model for assessing skin irritancy in test subjects/panellists.\nAn irritation panel study was carried out, the study included 9 individual panellists. […]\n(§1) For each panellist three test sites on each volar forearm were identified and marked (i.e. 6 test sites in total per panellist were assessed). An initial trans-epidermal water loss (TEWL) reading was taken using an AquaFlux AF200 Instrument to ensure no initial skin irritation at each of the 6 test sites. […]\n(§2) After 24 hours panellists were again acclimatised to the laboratory environment for 20 mins at 20° C. and 45% relative humidity. TEWL was measured using the POST (post occlusion stress test) protocol. Under this test the occlusion patch is removed, along with the textile sample, the test site is then wiped of any surface moisture, and then TEWL readings are taken immediately using the same AquaFlux AF200 Instrument. […]"}, "[2]": {"tested_on": "skin, volar forearm test sites", "experiment": "Comparative irritation panel study vs glycerine based emollient, TEWL by POST protocol (Example 3)", "conditions": "FIG. 8; 10 gsm polypropylene nonwoven; 0.6% Cirrasol Care + 12% additive; 24 hours under occlusion patch; 16 panellists", "from_the_text": "10 gsm polypropylene nonwoven textile was cut into 11 mm diameter circles. Each circle was individually treated with water based dispersions then dried to achieve a treat rate of a) 0.6% low-irritation hygiene finish (CirrasolTM Care ex. Croda, Sample A), or b) 0.6% low irritation hygiene finish and 12% […]-10 adipate (a diester skin care additive in accordance with the present invention, Sample B), or c) 0.6% low-irritation hygiene finish and 12% of a glycerine based emollient (Sample C). Treat rates are expressed as percentage by weight of textile. An irritation panel study was carried out, the study included 16 individual panellists. […] For each panellist three test sites on each volar forearm were identified and marked (i.e. 6 test sites in total per panellist were assessed). An initial trans-epidermal water loss (TEWL) reading was taken using an AquaFlux AF200 Instrument to ensure no initial skin irritation at each of the 6 test sites. […] TEWL was measured using the POST (post occlusion stress test) protocol. Under this test the occlusion patch is removed, along with the textile sample, the test site is then wiped of any surface moisture, and then TEWL readings are taken immediately using the same AquaFlux AF200 Instrument. TEWL is measured until the water loss rate peaks, and for the following 5 minutes. Results are measured in total water loss for 5 minutes after water loss rate peaks. […]"}, "[3]": {"tested_on": "skin, volar forearm test sites", "experiment": "Comparative irritation panel study vs ester based emollient, TEWL by POST protocol (Example 4)", "conditions": "FIG. 9; 10 gsm polypropylene nonwoven; 0.6% Cirrasol Care + 12% additive; 24 hours under occlusion patch; 16 panellists", "from_the_text": "10 gsm polypropylene nonwoven textile was cut into 11 mm diameter circles. Each circle was individually treated with water based dispersions then dried to achieve a treat rate of a) 0.6% low-irritation hygiene finish (Cirrasol™ Care ex. Croda, Sample A) based on weight of textile, or b) 0.6% low-irritation hygiene finish and 12% di-PPG-2 myreth-10 adipate (a diester skin care additive in accordance with the present invention, Sample B), or c) 0.6% low-irritation hygiene finish and 12% of a saturated tri-ester based emollient (Crodamol™ GTCC ex. Croda, Sample C). Treat rates are expressed as percentage by weight of textile. […]\nas §1, §2"}},
  "data": [
    {"substance": "di-PPG-2 myreth-10 adipate [diester skin care additive]", "values": [
      {"measurement": "decrease in skin water loss (combined average TEWL of all panellists)", "setting": "[1]", "result": 31, "unit": "%"},
      {"measurement": "skin irritation from nonwoven in contact with skin (combined average TEWL) compared to low-irritancy hygiene finish alone", "setting": "[2]", "result": "reduced skin irritation"},
      {"measurement": "skin irritation from nonwoven in contact with skin (combined average TEWL) compared to low-irritancy hygiene finish alone", "setting": "[3]", "result": "reduced skin irritation"}
    ]}
  ]
}
